Source: patent US9464092B2, “Transient protection of normal cells during chemotherapy” (G1 Therapeutics, Inc., priority 2013, dated 2016)

What was measured:
Format in all cases: biochemical
CDK4/CyclinD1 = CDK4/CyclinD1 (Homo sapiens (Human), UniProt P11802); assay: CDK4/CyclinD1 kinase assay (Nanosyn, Caliper microfluidic); conditions: Table 2; read-out: CDK4/CycD1 IC50
Experimental: (§1) Selected compounds disclosed herein were tested in CDK4/cyclinD1, CDK6/CycD3 CDK2/CycA and CDK2/cyclinE kinase assays by Nanosyn (Santa Clara, Calif.) to determine their inhibitory effect on these CDKs. The assays were performed using microfluidic kinase detection technology (Caliper Assay Platform). The compounds were tested in 12-point dose-response format in singlicate at Km for ATP. Phosphoacceptor substrate peptide concentration used was 1 μM for all assays and Staurosporine was used as the reference compound for all assays. Specifics of each assay are as described below:
CDK4/CyclinD1: Enzyme concentration: 1 nM; ATP concentration: 200 μM; Incubation time: 10 hr.

CDK2/CyclinE = CDK2/CyclinE (Homo sapiens (Human), UniProt P24941); assay: CDK2/CyclinE kinase assay (Nanosyn, Caliper microfluidic); conditions: Table 2; for IC50: read-out: CDK2/CycE IC50
Experimental: as §1, with “assays.” for “assays. Specifics of each assay are as described below:”

CDK2/CyclinA = CDK2/CyclinA (Homo sapiens (Human), UniProt P24941); assay: CDK2/CyclinA kinase assay (Nanosyn, Caliper microfluidic); conditions: Table 2; for IC50: read-out: CDK2/CycA IC50
Experimental: as §1
CDK2/CyclinA: Enzyme concentration: 0.2 nM; ATP concentration: 50 μM; Incubation time: 3 hr.

Sequence of CDK4/CyclinD1 (P11802 whole entry, species assumed): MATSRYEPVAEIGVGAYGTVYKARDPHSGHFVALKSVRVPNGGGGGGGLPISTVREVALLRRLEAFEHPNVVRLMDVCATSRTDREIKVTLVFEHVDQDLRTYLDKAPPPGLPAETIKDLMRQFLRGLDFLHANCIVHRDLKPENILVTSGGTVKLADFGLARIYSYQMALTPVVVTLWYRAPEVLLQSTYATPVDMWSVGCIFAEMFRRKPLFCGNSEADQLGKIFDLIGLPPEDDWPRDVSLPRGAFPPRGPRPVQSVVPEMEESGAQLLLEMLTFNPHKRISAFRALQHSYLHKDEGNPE
Sequence of CDK4/CyclinD1 (P24385 whole entry partner, species assumed): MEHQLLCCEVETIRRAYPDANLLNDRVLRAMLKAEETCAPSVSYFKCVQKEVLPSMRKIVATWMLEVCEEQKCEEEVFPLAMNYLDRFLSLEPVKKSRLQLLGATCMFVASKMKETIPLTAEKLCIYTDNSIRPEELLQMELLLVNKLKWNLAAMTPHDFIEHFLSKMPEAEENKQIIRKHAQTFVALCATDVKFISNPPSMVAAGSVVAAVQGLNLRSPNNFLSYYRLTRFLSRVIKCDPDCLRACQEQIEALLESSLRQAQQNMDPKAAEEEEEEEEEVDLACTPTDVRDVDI

SMILES | IC50 (CDK4/CyclinD1) [nM] | Fold Selectivity (CDK2/CycE/CDK4) (CDK2/CyclinE) | IC50 (CDK2/CyclinE) [nM] | Fold Selectivity (CDK2/CycA/CDK4) (CDK2/CyclinA) | IC50 (CDK2/CyclinA) [nM]
CC(C)N1CCN(C(=O)c2ccc(Nc3ncc4cc5n(c4n3)C3(CCCCC3)CNC5=O)nc2)CC1 [II] | 2 | 184 | 367 | 120 | 239
CC1(C)CN(c2ccc(Nc3ncc4cc5n(c4n3)C3(CCCCC3)CNC5=O)nc2)CCN1 [I] | 2 | 1065 | 2120 | 568 | 1130
C[C@@H]1CN(c2ccc(Nc3ncc4cc5n(c4n3)C3(CCCCC3)CNC5=O)nc2)CCN1C[C@@H](C)O [J] | 0.7 | 7707 | 5110 | 6546 | 4340
C[C@H]1CN(c2ccc(Nc3ncc4cc5n(c4n3)C3(CCCCC3)CNC5=O)nc2)CCN1 [KK] | 2.3 | 762 | 1760 | 396 | 915
CCN(CC)C1CCN(c2ccc(Nc3ncc4cc5n(c4n3)C3(CCCC3)CNC5=O)nc2)CC1 [LLL] | 3.2 | 509 | 1620 | 1425 | 4530
CCOCCN1CCN(c2ccc(Nc3ncc4cc5n(c4n3)C3(CCCC3)CNC5=O)nc2)CC1 [MMM] | 3.2 | 600 | 1890 | 314 | 990
C[C@@H]1CN(c2ccc(Nc3ncc4cc5n(c4n3)C3(CCCCC3)CNC5=O)nc2)CCN1C [NN] | 3.7 | 1274 | 4700 | 423 | 1560
O=C1NCC2(CCCC2)n2c1cc1cnc(Nc3ccc(C(=O)N4CCN(CC5CC5)CC4)cn3)nc12 [OOO] | 2.4 | 164 | 393 | 85 | 203
CCN(CC)C1CCN(c2ccc(Nc3ncc4cc5n(c4n3)C3(CCCCC3)CNC5=O)nc2)C1 (stereo not drawn) [QQ] | 4.1 | 746 | 3060 | 627 | 2570
C[C@H]1CN(c2ccc(Nc3ncc4cc5n(c4n3)C3(CCCCC3)CNC5=O)nc2)CCN1C [R] | 0.5 | 3918 | 1920 | 2776 | 1360
O=C1NCC2(CCCC2)n2c1cc1cnc(Nc3ccc(N4CCOCC4)nn3)nc12 [SSS] | 2 | 1112 | 2280 | 917 | 1880
CN(C)C1CCN(c2ccc(Nc3ncc4cc5n(c4n3)C3(CCCCC3)CNC5=O)nn2)CC1 [SS] | 0.8 | 1865 | 1460 | 1775 | 1390
C[C@@H](O)CN1CCN(c2ccc(Nc3ncc4cc5n(c4n3)C3(CCCCC3)CNC5=O)nc2)CC1 [S] | 1.7 | 718 | 1250 | 197 | 342
C[C@@H](O)CN1CCN(c2ccc(Nc3ncc4cc5n(c4n3)C3(CCCC3)CNC5=O)nc2)C[C@@H]1C [VV] | 3.3 | 809 | 2630 | 243 | 789
CC1CN(c2ccc(Nc3ncc4cc5n(c4n3)C3(CCCCC3)CNC5=O)nc2)CCN1CC(C)(C)O (stereo not drawn) [W] | 2.7 | 1481 | 3970 | 201 | 539
O=C1NCC2(CCCCC2)n2c1cc1cnc(Nc3ccc(N4CCC(N5CCC(C(F)(F)F)CC5)CC4)cn3)nc12 [X] | 0.9 | 12975 | 11600 | 2058 | 1840
C[C@H](O)CN1[C@H](C)CN(c2ccc(Nc3ncc4cc5n(c4n3)C3(CCCCC3)CNC5=O)nc2)C[C@@H]1C [Z] | 3.2 | 1174 | 3710 | 205 | 647

Continued by falling IC50 (CDK4/CyclinD1), values first:

IC50 (CDK4/CyclinD1) [nM] | Fold Selectivity (CDK2/CycE/CDK4) (CDK2/CyclinE) | IC50 (CDK2/CyclinE) [nM] | Fold Selectivity (CDK2/CycA/CDK4) (CDK2/CyclinA) | IC50 (CDK2/CyclinA) [nM] | SMILES
9 | 442 | 3980 | 63 | 570 | CC1CN(c2ccc(Nc3ncc4cc5n(c4n3)C3(CCCCC3)CNC5=O)nc2)C[C@@H](C)N1CC1CC1 (stereo partly drawn) [OO]
5.7 | 789 | 4530 | 260 | 1490 | CC(C)N1CCN(c2ccc(Nc3ncc4cc5n(c4n3)C3(CCCCC3)CNC5=O)nc2)C[C@H]1C [L]
3.3 | 1085 | 3560 | 308 | 1010 | C[C@@H]1CN(c2ccc(Nc3ncc4cc5n(c4n3)C3(CCCCC3)CNC5=O)nc2)C[C@H](C)N1 [P]
3.2 | 1620 | 5200 | 882 | 2830 | CCC(C)CN1[C@H](C)CN(c2ccc(Nc3ncc4cc5n(c4n3)C3(CCCC3)CNC5=O)nc2)C[C@@H]1C (stereo partly drawn) [JJJ]
3.1 | 1146 | 3600 | 984 | 3090 | CC(C)N1CCN(c2ccc(Nc3ncc4cc5n(c4n3)C3(CCCCC3)CNC5=O)nc2)CC1C (stereo not drawn) [PP]
2.9 | 1224 | 3500 | 745 | 2130 | C[C@@H]1CN(c2ccc(Nc3ncc4cc5n(c4n3)C3(CCCCC3)CNC5=O)nc2)CCN1 [V]
2.5 | 50 | 124 | 25 | 61 | O=C1NCC2(CCCCC2)n2c1cc1cnc(Nc3ccc(C(=O)N4CCNCC4)cn3)nc12 [Y]
2.3 | 1004 | 2280 | 621 | 1410 | C[C@H]1CN(c2ccc(Nc3ncc4cc5n(c4n3)C3(CCCCC3)CNC5=O)nc2)CCN1CCC(C)(C)C [M]
2 | 103 | 202 | 55 | 108 | O=C1NCC2(CCCCC2)n2c1cc1cnc(Nc3ccc(C(=O)N4CCN(C5CCC5)CC4)cn3)nc12 [LL]
1.8 | 1863 | 3390 | 328 | 597 | C[C@@H]1CN(c2ccc(Nc3ncc4cc5n(c4n3)C3(CCCCC3)CNC5=O)nc2)C[C@H](C)N1C[C@@H](C)O [MM]
1.4 | 2154 | 2930 | 743 | 1010 | CC1CN(c2ccc(Nc3ncc4cc5n(c4n3)C3(CCCC3)CNC5=O)nc2)CCN1CC1CC1 (stereo not drawn) [NNN]
1.3 | 231 | 291 | 69 | 87.3 | CC(C)(C)CCN1CCN(c2ccc(Nc3ncc4cc5n(c4n3)C3(CCCC3)CNC5=O)nc2)CC1 [KKK]
1.3 | 5615 | 7300 | 4838 | 6290 | C[C@H](O)CN1CCN(c2ccc(Nc3ncc4cc5n(c4n3)C3(CCCC3)CNC5=O)nc2)C[C@H]1C [XX]
1.2 | 1374 | 1580 | 603 | 693 | CCN(CC)C1CCN(C2CCN(c3ccc(Nc4ncc5cc6n(c5n4)C4(CCCCC4)CNC6=O)nc3)CC2)C1 (stereo not drawn) [RR]
1 | 1019 | 1070 | 703 | 738 | CC1CCN(C2CCN(c3ccc(Nc4ncc5cc6n(c5n4)C4(CCCCC4)CNC6=O)nc3)CC2)C1 (stereo not drawn) [K]
0.8 | 1550 | 1260 | 733 | 596 | CC(C)N1CCN(c2ccc(Nc3ncc4cc5n(c4n3)C3(CCCCC3)CNC5=O)nn2)CC1 [TT]
